We go through 19 compounds from US5610155A, “Condensed diazepinones, processes for preparing them and agents containing these compounds for treating diseases of the central nervous system and for promoting cerebral blood circulation” (Dr. Karl Thomae GmbH, priority 1995, dated 1997).

Usually Ki stands for a measure of affinity in units of concentration, obtained from inhibition or displacement. For orientation: ED50 means the midpoint of the dose-response relation.

One experiment concerns the target T1, M2 (Heart) (Rattus norvegicus, UniProt P10980).
T1 construct: The cerebral cortex, heart and salivary glands were removed, washed and homogenised; from tissue; host or cells: heart of male Wistar rats (Chbb: THOM)
T1 sequence (P10980 1-466): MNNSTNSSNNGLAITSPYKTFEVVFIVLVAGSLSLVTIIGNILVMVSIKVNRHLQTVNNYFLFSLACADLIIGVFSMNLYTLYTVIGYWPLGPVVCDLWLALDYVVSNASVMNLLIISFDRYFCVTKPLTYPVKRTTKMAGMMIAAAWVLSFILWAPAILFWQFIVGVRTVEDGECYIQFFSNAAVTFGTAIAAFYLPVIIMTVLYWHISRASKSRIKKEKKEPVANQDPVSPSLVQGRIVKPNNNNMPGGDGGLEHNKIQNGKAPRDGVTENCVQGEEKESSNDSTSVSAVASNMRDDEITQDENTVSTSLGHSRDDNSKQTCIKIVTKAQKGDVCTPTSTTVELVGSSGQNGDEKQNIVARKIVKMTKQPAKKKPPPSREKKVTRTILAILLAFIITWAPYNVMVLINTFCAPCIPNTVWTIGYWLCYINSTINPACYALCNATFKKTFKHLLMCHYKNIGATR
Kind of experiment: Receptor binding test in vitro, M2 (heart), [3H]NMS. Details: species or system rat (male Wistar). To be noted: 0.3 nM [3H]NMS, 40 min, ambient temperature, pH 7.5.

In a further experiment the target is T2, M3 (Submandibular gland) (Rattus norvegicus, UniProt P08483).
T2 construct: The cerebral cortex, heart and salivary glands were removed, washed and homogenised; from tissue; host or cells: salivary (submandibular) glands of male Wistar rats (Chbb: THOM)
T2 sequence (P08483 whole entry): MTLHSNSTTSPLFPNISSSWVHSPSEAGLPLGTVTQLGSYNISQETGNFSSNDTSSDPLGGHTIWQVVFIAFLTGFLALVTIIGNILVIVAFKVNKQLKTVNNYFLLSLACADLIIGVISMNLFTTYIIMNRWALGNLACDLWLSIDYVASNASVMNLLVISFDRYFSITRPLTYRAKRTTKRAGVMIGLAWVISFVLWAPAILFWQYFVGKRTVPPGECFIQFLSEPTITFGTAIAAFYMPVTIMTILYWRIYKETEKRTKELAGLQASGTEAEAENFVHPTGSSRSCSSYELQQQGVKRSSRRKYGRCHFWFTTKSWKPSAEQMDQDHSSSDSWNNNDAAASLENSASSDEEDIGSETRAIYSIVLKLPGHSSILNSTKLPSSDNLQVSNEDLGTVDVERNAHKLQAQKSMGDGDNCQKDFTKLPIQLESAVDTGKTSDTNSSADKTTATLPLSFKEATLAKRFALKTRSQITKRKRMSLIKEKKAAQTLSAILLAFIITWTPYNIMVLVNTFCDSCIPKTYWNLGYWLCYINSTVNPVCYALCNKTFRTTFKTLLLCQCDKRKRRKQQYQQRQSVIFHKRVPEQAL
Kind of experiment: Receptor binding test in vitro, M3 (submandibular/salivary gland), [3H]NMS. To be noted: 0.3 nM [3H]NMS, 40 min, ambient temperature, pH 7.5. More on the design: species or system rat (male Wistar).

The next experiment addresses T3, M1 (Cortex) (Rattus norvegicus, UniProt P08482).
T3 construct: The cerebral cortex, heart and salivary glands were removed, washed and homogenised; from tissue; host or cells: cerebral cortex of male Wistar rats (Chbb: THOM)
T3 sequence (P08482 1-460): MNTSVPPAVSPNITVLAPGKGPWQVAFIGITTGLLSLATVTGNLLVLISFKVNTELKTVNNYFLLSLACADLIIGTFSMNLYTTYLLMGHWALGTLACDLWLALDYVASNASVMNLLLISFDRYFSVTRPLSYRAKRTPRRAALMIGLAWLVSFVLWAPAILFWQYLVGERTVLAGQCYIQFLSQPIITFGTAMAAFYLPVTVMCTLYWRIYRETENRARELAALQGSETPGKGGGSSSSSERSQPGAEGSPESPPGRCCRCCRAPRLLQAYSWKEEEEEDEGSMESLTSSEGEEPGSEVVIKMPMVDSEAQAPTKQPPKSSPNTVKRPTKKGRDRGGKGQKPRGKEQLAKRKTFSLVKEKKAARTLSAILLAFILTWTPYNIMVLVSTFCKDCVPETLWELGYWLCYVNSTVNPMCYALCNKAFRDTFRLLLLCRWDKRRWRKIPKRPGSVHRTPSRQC
Kind of experiment: Receptor binding test in vitro, M1 (cerebral cortex), [3H]pirenzepine. Details: species or system rat (male Wistar). The conditions noted are these: 1 nM [3H]pirenzepine, 90 min, ambient temperature, pH 7.5.

Experiment [1] relates to arecoline-induced increase in blood pressure. As to the kind of experiment: Investigation for central activity: arecoline test, CNS-penetration in vivo. Details: species or system rat. To be noted: for ED50: Rattus norvegicus, iv, read-out: ED50, reduction in the arecoline-induced increase in blood pressure. The procedure:
Principle: Arecoline has both a central and a peripherally active component. […] Cerebroavailable antimuscarinics block this central effect. Method: Male rats weighing 300 g are anaesthetised i.p. with urethane (1.2 g/kg). The trachea is […], the animals are respirated with an air/oxygen mixture (80 breaths per minute). The blood pressure is recorded after canulation of the carotid artery by means of a pressure recorder (Bell and Howell Type 4-327-I). The test substances are administered through the jugular vein ([…]). […] The arecoline is administered (in doses of 0.3 mg/kg) at 15 minute intervals. After 2 comparison values, the test substance is injected in increasing doses 5 minutes before the next administration of arecoline. The results obtained were compared with the average starting values and determined as the percentage inhibition.

For experiment [2] the following is noted: literature: Hunter and Roberts 1988; Hunter et al. 1986; Sutherland et al. 1982; Wishaw 1985; cited from earlier work.
Experiment [3] deals with 24 months old learning-impaired rats. Kind of experiment: Effect on the memory in the Morris water maze (aged rats). To be noted: 24 months old rats, 0.2 mg/kg s.c., 4 days, FIG. 1, vs physiological saline. Type of experiment: in vivo, rat. As for the experimental part: The tests were carried out using the water maze described by R. G. M. Morris in Learn Motive 12: 239-249 (1981) using the test method described therein.
On the first day, rats which were 24 months old and therefore learning-impaired (n=7 per group) were given 0.2 mg/kg of compound D by subcutaneous route whilst another group of these animals were given physiological saline solution (s.c.).

Entries after “also recorded” stand apart in the source; their conditions may differ.

For `CN(CCC1CCCN1C)CC(=O)N1c2ccccc2C(=O)Nc2cccnc21` (stereo not shown) [R], the Ki on M2 (Heart) worked out at 3 nM; at M3 (Submandibular gland), 30 nM; at M1 (Cortex), 7.1 nM.
As for `Cc1scc2c1N(C(=O)CCC#CCN1CCCCCC1)c1ccccc1NC2=O` [P], the inhibition constant Ki amounted to 7.6 nM at M2 (Heart), 30 nM on M3 (Submandibular gland) and 35 nM on M1 (Cortex).
Consider `CCCN(CCC)CC1CCCCN1CCNC(=O)N1c2ccccc2C(=O)Nc2cccnc21` (stereo not shown) [L], for which the inhibition constant Ki on M2 (Heart) is 7.9 nM; on M1 (Cortex), 30 nM. Moreover, in experiment [1], the 50% effective dose (ED50) is above 10 mg/kg. In experiment [1] (rat, i.v.), the “Effect on arecoline-mediated central effects / increase in blood pressure (in words)” value is given as “no effect on the increase in blood pressure caused by arecoline”.
`CCCC(C)(C)C(=O)N(CC)CCCC1CCN(CC(=O)N2c3ccccc3C(=O)Nc3cccnc32)CC1` [Substance B]: the figures for the inhibition constant (Ki) on M2 (Heart), on M3 (Submandibular gland) and at M1 (Cortex) were 15 nM, 300 nM and 150 nM, respectively. Further, the ED50 in experiment [1] is 1.3 mg/kg.
Regarding `Cc1scc2c1N(C(=O)CN1CCC(CCCN3CCCCC3)CC1)c1ccccc1NC2=O` [N], the inhibitory constant (Ki) was determined as 2 nM on M2 (Heart), 6 nM at M3 (Submandibular gland) and 7.9 nM on M1 (Cortex).
Regarding `O=C1Nc2cccnc2N(C(=O)CCCCCN2CCCCC2)c2ccccc21` [Substance O, 5,11-dihydro-11-[1-oxo-6-(1-piperidinyl)-1-hexyl]-6H-pyrido[2,3-b][1,4]benzodiazepin-10-one, reference compound], the results for the Ki on M2 (Heart), at M3 (Submandibular gland) and at M1 (Cortex) were 5 nM, 40 nM and 10 nM, respectively.
On to `CCN(CC)CC1CCCCN1CC(=O)N1c2ccccc2C(=O)Nc2cccnc21` (stereo not shown) [H], for which the Ki on M3 (Submandibular gland) turned out to be 2000 nM.
For the compound `CCN(CCCC1CCN(CC(=O)N2c3ccccc3C(=O)Nc3cccnc32)CC1)C(=O)C(C)(C)CC` [Substance A, 5,11-dihydro-11-[[4-[3-[(2,2-dimethyl-1-oxobutyl]-ethylamino]-propyl]-1-piperidinyl]acetyl]-6H-pyrido[2,3-b][1,4]benzodiazepin-6-one], the values for the Ki on M2 (Heart), on M3 (Submandibular gland) and on M1 (Cortex) were 25 nM, 750 nM and 500 nM, respectively. Moreover, the ED50 in experiment [1] turned out to be 4.5 mg/kg.
In the case of `CN(CCC1CCCCCN1C)CC(=O)N1c2ccccc2C(=O)Nc2cccnc21` (stereo not shown) [S], the Ki was 3 nM at M2 (Heart), 25 nM on M3 (Submandibular gland) and 16 nM at M1 (Cortex).
In the case of `CN1CCN(CC(=O)N2c3ccccc3C(=O)Nc3cccnc32)CC1` [pirenzepine], the “Learning ability and memory performance (in words)” value in experiment [2] was “a deterioration in learning ability and memory performance was observed”.
Consider `CCN(CCCC1CCN(CC(=O)N2c3ccc(C)cc3C(=O)Nc3cccnc32)CC1)C(=O)C(C)(C)CC` [Substance G, 5,11-dihydro-8-methyl-11-[[4-[3-[(2,2-dimethyl-1oxobutyl)ethylamino]propyl]-1-piperidinyl]acetyl]-6H-pyrido[2,3-b][1,4]benzodiazepin-6-one], for which the inhibition constant (Ki) amounted to 25 nM on M2 (Heart), 750 nM on M3 (Submandibular gland) and 600 nM on M1 (Cortex). Besides, in experiment [1], the ED50 was 5.1 mg/kg.
Take `CCN(CCCC1CCN(CC(=O)N2c3ccc(C)cc3C(=O)Nc3cccnc32)CC1)C(=O)C(C)(C)C` [Substance E, 5,11-dihydro-8-methyl-11-[[4-[3-[(2,2-dimethyl-1-oxopropyl)-ethylamino]propyl]-1-piperidinyl]acetyl]-6H-pyrido[2,3-b][1,4]benzodiazepin-6-one]: the Ki at M2 (Heart) is 100 nM; on M3 (Submandibular gland), 1500 nM; at M1 (Cortex), 1000 nM. For the same compound, the ED50 in experiment [1] came out at 2.8 mg/kg.
On to `O=C1Nc2cccnc2N(C(=O)CCC#CCN2CCCCC2)c2ccccc21` [J], for which the inhibition constant Ki on M2 (Heart) amounted to 120 nM; on M3 (Submandibular gland), 1820 nM; on M1 (Cortex), 794 nM.
On to `CCN(CC)CC1COCCN1CCCC(=O)N1c2ccccc2C(=O)Nc2cccnc21` (stereo not shown) [Q], for which the values for the inhibitory constant (Ki) at M2 (Heart), at M3 (Submandibular gland) and on M1 (Cortex) were 20 nM, 50 nM and 50 nM, respectively.
As to `CCN(CC)CCCCC1CCN(CC(=O)N2c3ccccc3C(=O)Nc3cccnc32)CC1` [I], the Ki was 151 nM at M3 (Submandibular gland) and 20 nM on M1 (Cortex).
With `CCCC(C)(C)C(=O)N(CC)CCCCC1CCN(CC(=O)N2c3ccccc3C(=O)Nc3cccnc32)CC1` [Substance C, 5,11-dihydro-11-[[4-[4-[(2,2-dimethyl-1-oxopentyl)-ethylamino]butyl]-1-piperidinyl]acetyl]-6H -pyrido [2,3-b][1,4]benzodiazepin-6-one], the Ki on M2 (Heart) is 38 nM; at M3 (Submandibular gland), 875 nM; at M1 (Cortex), 500 nM. Further, in experiment [1], the ED50 came to 2 mg/kg.
As to `CCCC(C)(C)C(=O)N(CC)CCCC1CCN(CC(=O)N2c3ccc(Cl)cc3C(=O)Nc3cccnc32)CC1` [Substance D, 5,11-dihydro-8-chloro-11-[[4-[3-[(2,2-dimethyl-1-oxopentyl)-ethylamino]propyl]-1-piperidinyl]-acetyl]-6H-pyrido[2,3-b][1,4]benzodiazepin-6-one], the results for the inhibition constant Ki at M2 (Heart), on M3 (Submandibular gland) and at M1 (Cortex) were 25 nM, 916 nM and 866 nM, respectively. Moreover, in experiment [3], the “Memory performance in the Morris water maze (in words)” value was “improved memory performance; also recorded: reached the same level as the control groups of young rats”. Also, the ED50 in experiment [1] was found to be 5 mg/kg.
Consider `CCN(CCCC1CCN(CC(=O)N2c3ccccc3C(=O)Nc3cccnc32)CC1)C(=O)C(C)(C)C` [Substance F, 5,11-Dihydro-11-[[4-[3-[(2,2-dimethyl-1-oxopropyl)ethylamino]propyl]-1-piperidinyl]acetyl]-6H-pyrido[2,3-b][1,4]benzodiazepin-6-one], for which the inhibition constant (Ki) turned out to be 65 nM at M2 (Heart), 1500 nM on M3 (Submandibular gland) and 900 nM on M1 (Cortex). In experiment [1], the ED50 was found to be 6.5 mg/kg.
Turning to `O=C1Nc2cccnc2N(C(=O)N2CCCC(CCCN3CCCCC3)C2)c2ccccc21` (stereo not shown) [M], the inhibition constant Ki at M2 (Heart) is 2 nM; on M3 (Submandibular gland) it was 13 nM; at M1 (Cortex), 13 nM.
